“Also recorded” adds a separate entry of the source.
Legend:
phospho-ERK1/2 = assay: Signal transduction assay, VEGF165-induced ERK phosphorylation in MECs (ELISA); format: cell-based, mouse; conditions: murine VEGF165 5 ng/mL 5 min, peptide 1 µM, n ≥ 3
Procedure: HMVECs and MECs were seeded in 6-well plates at 1.25 × 10^5 cells/well in their respective culture medium. Once the cell density reached 70–80% confluency, the cells were starved in serum-free medium overnight. Fifteen minutes prior to stimulation, cells were incubated with various concentrations of CXCL9(74-103) or CXCL9(86-103) in 0.5% (v/v) BSA in MCDB131 or DMEM medium (assay medium for HMVECs and MECs, respectively) at 37 °C. HMVECs and MECs were stimulated with assay medium alone or supplemented with 10 ng/mL EGF or 5 ng/mL murine VEGF165 at 37 °C for 15 or 5 min, respectively. Then, the cells were placed on ice, washed with ice-cold PBS and 90 µL of lysis buffer [1% (v/v) protease inhibitor cocktail, phosphatase inhibitor cocktail 2 and 3 (all Sigma-Aldrich) in 1 mM ethylenediaminetetraacetic acid (EDTA), 0.5% (v/v) Triton™ X-100, 5 mM NaF, 6 M urea in PBS] was added per well. […] The amount of phospho-ERK1/2 in the cell lysates was determined using an ERK1 (Thr202/Tyr204)/ERK2 (Thr185/Tyr187) ELISA duoset (R&D Systems) according to the manufacturer’s instructions. The amount of phosphorylated ERK was normalized to the total protein content in the samples measured by the Pierce™ bicinchoninic acid (BCA) protein assay kit (Thermo Fisher Scientific).

[1] = system: diabetes-induced vascular permeability, Sprague-Dawley rats; assay: Retinal vascular permeability in streptozotocin-induced diabetic rats; format: in vivo, rat; conditions: intravitreal, equimolar CXCL9(74-103) 30 µg or CXCL9(86-103) 18 µg, two weeks, n = 12–15
Procedure: Male Sprague-Dawley rats (210–240 g) were fasted overnight and injected intraperitoneally (i.p.) with streptozotocin (55 mg/kg body weight, dissolved in citrate buffer, pH 4.5) to induce diabetes. After 3 days, the animals were anesthetized, diabetes was confirmed and the vitreous of the right eye was injected with equimolar amounts of CXCL9(74-103) (30 µg), CXCL9(86-103) (18 µg) or PBS (5 µL/injection). Diabetes-induced breakdown of the blood-retinal barrier as a consequence of increased vascular permeability was evaluated in retinas two weeks after streptozotocin injection, as previously described. Briefly, 30 min prior to sacrifice, fluorescein isothiocyanate (FITC)-conjugated dextran of 3-5 kDa (Sigma-Aldrich) was intravenously (i.v.) injected. After collection of a blood sample, rats were perfused with PBS. The retinas were excised, weighed and homogenized. The fluorescence in the retina lysates was measured using a SpectraMax® Gemini™ XPS system. For normalization of the data, the following equation was used to express the obtained results: Retinal FITC-dextran (µg)/retinal weight (g) Plasma FITC-dextran concentration (µg/µL) × circulation time (h)

[2] = system: MDA-MB-231 breast cancer xenograft; assay: In vivo MDA-MB-231 breast cancer mouse model; set-up: species or system human tumor cells in SCID mice; conditions: 800 µg s.c. osmotic pump; text says data not shown
Procedure: Six-to-eight-week-old female SCID mice were s.c. injected with 6 × 10^6 MDA-MB-231 breast tumor cells (American Type Culture Collection, Manassas, VA) in 200 µL PBS. Three days later, mice were anesthetized as described (vide supra), a dorsal incision was made and an ALZET osmotic pump (model 1002, DURECT Corporation) containing 800 µg/100 µL CXCL9(74-103) or CXCL9(86-103) or 100 µL PBS was s.c. implanted, which delivered a continuous dose over the course of two weeks. Three weeks after tumor cell injection, mice were sacrificed. Tumors were isolated, minced and added to 2 mL of tumor cell medium [TCM; 5% (v/v) FCS in RPMI 1640 + Glutamax (Gibco)]. After centrifugation (500 g, room temperature, 5 min), minced tumors were incubated at 37 °C for 30 min in 3 mL of digestion medium [2 mg/mL collagenase D, 0.1 mg/mL DNAse and 5 U/mL dispase (Corning Life Sciences) in TCM]. Subsequently, tumor fragments were further disrupted using a 1 mL syringe and 18G needle, and 2 mL of digestion medium was added for an additional incubation at 37 °C for 15 min. […] After centrifugation (500 g, 4 °C, 5 min), the pellet was resuspended in 500 µL of 2% (v/v) FCS in PBS and the cells were counted. To assess the anti-angiogenic potential of the CXCL9-derived peptides, the population of endothelial cells within the tumor samples was determined via flow cytometry (vide supra).

[3] = system: human microvascular endothelial cells (HMVECs); assay: xCELLigence adhesion assay; format: cell-based; conditions: VEGF165 50 ng/mL, peptide 3 µM, 1 h, gelatin coat; n = 2–6
Procedure: The wells of an E-plate (ACEA Biosciences, Inc.) were washed and coated with 0.1% (v/v) gelatin in phosphate-buffered saline (PBS) at 37 °C for 1 h. Following a washing step, wells were incubated with 0.1% (v/v) bovine serum albumin (BSA) in PBS at 37 °C for 1 h. After washing, 50 µL basal MCDB131 medium was added and the plate was allowed to equilibrate at 37 °C. HMVECs were harvested and seeded at 4 × 10^4 cells/well together with 50 ng/mL VEGF165 with or without 0.03, 0.3 or 3 µM of CXCL9(74-103) or 3 µM of CXCL9(86-103) in 100 µL control medium (vide supra). Real-time changes in electrical impedance depicted as cell indices, as measure for cell adhesion and spreading, were analyzed using the xCELLigence® RTCA DP System. The adhesion of HMVECs was analyzed 1 h after seeding.

Sequence: KKVLKVRKSQRSRQKKTT [CXCL9(86-103)]
- VEGF165-induced ERK phosphorylation (phospho-ERK1/2): did not result in a reduction of VEGF165-induced ERK phosphorylation
- retinal vascular permeability (FITC-dextran leakage) [1]: tended to decrease the vascular leakage, but this was not significant; also recorded: could not significantly improve diabetes-induced vascular leakage
- tumor-associated angiogenesis [2]: no anti-angiogenic activity
- VEGF165-induced endothelial cell adhesion [3]: No effect on VEGF-induced adhesion
